These are literature values, as cited in PubChem BioAssay AID1259409 (Chemical Carcinogenesis Research Information System (CCRIS), 2018).

The subject of this series is rodent chemically induced tumor inhibition, incidence and multiplicity. Briefly: CCRIS tumor inhibitor studies.

Values joined by “and” are separate entries in the source; they are usually repeats but may differ in a detail not shown here. Equal entries are not always repeated.

For `CC(C)(Sc1cc(C(C)(C)C)c(O)c(C(C)(C)C)c1)Sc1cc(C(C)(C)C)c(O)c(C(C)(C)C)c1`, the “tumour outcome (control, treated, inhibition, significance)” value reads like this: (Carcinogen: BENZO[A]PYRENE, 50-32-8, Dose [Inhibitor]: 0, 0.06% IN DIET FOR DURATION OF STUDY BEGINNING 2 WK PRIOR TO CARCINOGEN DOSE (STUDY DURATION: 25 WK), Route [Inhibitor]: ORAL, Species: MOUSE, Strain/Sex: STRAIN-A/FEMALE, Target Tissue: Type of Lesion: FORESTOMACH: TUMOR, Dose [Carcinogen]: 1 MG IN 0.2 ML OLIVE OIL 2/WK FOR 4 WK, Promoter: NONE USED) 15/15 (100%), 13/13 (100%), 0%, not significant; (Carcinogen: BENZO[A]PYRENE, 50-32-8, Dose [Inhibitor]: 0, 0.06% IN DIET FOR DURATION OF STUDY BEGINNING 2 WK PRIOR TO CARCINOGEN DOSE (STUDY DURATION: 25 WK), Route [Inhibitor]: ORAL, Species: MOUSE, Strain/Sex: STRAIN-A/FEMALE, Target Tissue: Type of Lesion: LUNG: ADENOMA, Dose [Carcinogen]: 1 MG IN 0.2 ML OLIVE OIL 2/WK FOR 4 WK, Promoter: NONE USED) 15/15 (100%), 13/13 (100%), 0%, not significant; (Carcinogen: BENZO[A]PYRENE, 50-32-8, Dose [Inhibitor]: 0, 1% IN DIET FOR DURATION OF STUDY BEGINNING 2 WK PRIOR TO CARCINOGEN DOSE (STUDY DURATION: 25 WK), Route [Inhibitor]: ORAL, Species: MOUSE, Strain/Sex: STRAIN-A/FEMALE, Target Tissue: Type of Lesion: FORESTOMACH: TUMOR, Dose [Carcinogen]: 1 MG IN 0.2 ML OLIVE OIL 2/WK FOR 4 WK, Promoter: NONE USED) 15/15 (100%), 15/15 (100%), 0%, not significant; (Carcinogen: BENZO[A]PYRENE, 50-32-8, Dose [Inhibitor]: 0, 1% IN DIET FOR DURATION OF STUDY BEGINNING 2 WK PRIOR TO CARCINOGEN DOSE (STUDY DURATION: 25 WK), Route [Inhibitor]: ORAL, Species: MOUSE, Strain/Sex: STRAIN-A/FEMALE, Target Tissue: Type of Lesion: LUNG: ADENOMA, Dose [Carcinogen]: 1 MG IN 0.2 ML OLIVE OIL 2/WK FOR 4 WK, Promoter: NONE USED) 15/15 (100%), 15/15 (100%), 0%, not significant. Besides, the outcome (Carcinogen: N,N-diethylnitrosamine, 55-18-5, Dose [Inhibitor]: 1% in diet through study, dose and study duration 24 wk, Route [Inhibitor]: Oral, Species: Mouse, Strain/Sex: ddy/Male, Target Tissue: Type of Lesion: Kidney, Dose [Carcinogen]: 100 mg/kg bw, Promoter: Ferric nitrilotriacetate, 16448-54-7) is recorded as 14/20 (70%), 4/20 (20%).

In the case of `O=c1ccc2ccc(O)cc2o1`, the “tumour outcome (control, treated, inhibition, significance)” value is, setting by setting: (Carcinogen: 7,12-DIMETHYLBENZ[A]ANTHRACENE, 57-97-6, Dose [Inhibitor]: 0.034 MMOL/G IN DIET FOR 8 D BEGINNING 7 D PRIOR TO CARCINOGEN DOSE (STUDY DURATION: 23 WK), Route [Inhibitor]: ORAL, Species: RAT, Strain/Sex: SPRAGUE-DAWLEY/FEMALE, Target Tissue: Type of Lesion: MAMMARY GLAND: TUMOR, Dose [Carcinogen]: 12 MG IN 1.0 ML OLIVE OIL ONCE, Promoter: NONE USED) 93%, 93%, 0%, not significant; (Carcinogen: BENZO[A]PYRENE, 50-32-8, Dose [Inhibitor]: 0.034 MMOL/G IN DIET FOR 5 WK BEGINNING 1 WK PRIOR TO FIRST CARCINOGEN DOSE (STUDY DURATION: 21 WK), Route [Inhibitor]: ORAL, Species: MOUSE, Strain/Sex: ICR/FEMALE, Target Tissue: Type of Lesion: FORESTOMACH: TUMOR, Dose [Carcinogen]: 1 MG IN 0.2 ML CORN OIL 2/WK FOR 4 WK, Promoter: NONE USED) 100%, 95%, 5%, not significant and 90%, 95%,-5%, not significant and 95%, 100%, -5%, not significant; (Carcinogen: BENZO[A]PYRENE, 50-32-8, Dose [Inhibitor]: 0.068 MMOL/G IN DIET FOR 5 WK BEGINNING 1 WK PRIOR TO FIRST CARCINOGEN DOSE (STUDY DURATION: 21 WK), Route [Inhibitor]: ORAL, Species: MOUSE, Strain/Sex: ICR/FEMALE, Target Tissue: Type of Lesion: FORESTOMACH: TUMOR, Dose [Carcinogen]: 1 MG IN 0.2 ML CORN OIL 2/WK FOR 4 WK, Promoter: NONE USED) 100%, 95%, 5%, not significant.

In the case of `Clc1c(Cl)c(Cl)c2c(c1Cl)Oc1c(Cl)c(Cl)c(Cl)c(Cl)c1O2`, the “tumour outcome (control, treated, inhibition, significance)” value (Carcinogen: 7,12-DIMETHYLBENZ[A]ANTHRACENE, 57-97-6, Dose [Inhibitor]: 0, 17 NMOL 2/WK APPLIED 1 HR PRIOR TO EACH PROMOTER DOSE FOR 20 WK (STUDY DURATION: 21 WK), Route [Inhibitor]: DERMAL, Species: MOUSE, Target Tissue: Type of Lesion: SKIN: TUMOR, Dose [Carcinogen]: 390 NMOL ONCE, Promoter: 12-O-TETRADECANOYLPHORBOL-13-ACETATE, 16561-29-8) is 100%, 87%, 13%, not calculated.

For `ClC(Cl)(Cl)Cl`, the “tumour outcome (control, treated, inhibition, significance)” value (Carcinogen: 1,2-DIMETHYLHYDRAZINE, 540-73-8, Dose [Inhibitor]: 0, 1.5 ML/KG BW IN CORN OIL ADMINISTERED 2 HR PRIOR TO EACH CARCINOGEN DOSE (STUDY DURATION: 8 MO), Route [Inhibitor]: GAVAGE, Species: RAT, Strain/Sex: BD6/MALE, Target Tissue: Type of Lesion: INTESTINE: TUMOR, Dose [Carcinogen]: 20 MG/KG BW 1/WK FOR 20 WK, Promoter: NONE USED) is listed as 100%, 0%, 100%, not calculated.

In the case of `CC1=CCC(O)(C(C)C)CC1` (stereo unspecified), the outcome runs as follows: (Carcinogen: 7,12-DIMETHYLBENZ[A]ANTHRACENE (57-97-6), Dose [Inhibitor]: 10 MG/KG BW DAILY BETWEEN 45 AND 59 D OF AGE (STUDY DURATION: 1 YR), Route [Inhibitor]: INTRAGASTRIC (GASTRIC) IN HYDROXYETHYLCELLULOSE SODIUM, Species: RAT, Strain/Sex: SPRAGUE-DAWLEY/FEMALE, Target Tissue: Type of Lesion: MAMMARY: ADENOCARCINOMA, Dose [Carcinogen]: 75 MG/KG BW IN SESAME OIL (ONCE) AT 60 D OF AGE) 75%, 85%; (Carcinogen: 7,12-DIMETHYLBENZ[A]ANTHRACENE (57-97-6), Dose [Inhibitor]: 10 MG/KG BW DAILY FOR 6 MO AFTER CARCINOGEN ADMINISTRATION, Route [Inhibitor]: INTRAGASTRIC (GASTRIC), Species: RAT, Strain/Sex: SPRAGUE-DAWLEY/FEMALE, Target Tissue: Type of Lesion: MAMMARY: ADENOCARCINOMA, Dose [Carcinogen]: 75 MG/KG BW AT 55 D OF AGE (STUDY DURATION: 1 YR)) 75%, 58%.

`CCN(CC)CCCCOc1ccc(/C(=C(/Cl)c2ccccc2)c2ccccc2)cc1`: the “tumour outcome (control, treated, inhibition, significance)” value is, setting by setting: (Carcinogen: N-METHYL-N-NITROSOUREA, 684-93-5, Dose [Inhibitor]: 0, 0.003 MG/KG BW 1/D FOR 90 D BEGINNING 1 WK POST CARCINOGEN DOSE (STUDY DURATION: 90 D), Route [Inhibitor]: GAVAGE, Species: RAT, Strain/Sex: SPRAGUE-DAWLEY/FEMALE, Target Tissue: Type of Lesion: MAMMARY GLAND: CARCINOMA, Dose [Carcinogen]: 50 MG/KG BW ONCE, Promoter: NONE USED) 100%, 50%, 50%, not calculated; (Carcinogen: N-METHYL-N-NITROSOUREA, 684-93-5, Dose [Inhibitor]: 0, 0.01 MG/KG BW 1/D FOR 90 D BEGINNING 1 WK POST CARCINOGEN DOSE (STUDY DURATION: 90 D), Route [Inhibitor]: GAVAGE, Species: RAT, Strain/Sex: SPRAGUE-DAWLEY/FEMALE, Target Tissue: Type of Lesion: MAMMARY GLAND: CARCINOMA, Dose [Carcinogen]: 50 MG/KG BW ONCE, Promoter: NONE USED) 100%, 30%, 70%, not calculated; (Carcinogen: N-METHYL-N-NITROSOUREA, 684-93-5, Dose [Inhibitor]: 0, 0.1 MG/KG BW 1/D FOR 85 D BEGINNING 1 WK POST CARCINOGEN DOSE (STUDY DURATION: 85 D), Route [Inhibitor]: GAVAGE, Species: RAT, Strain/Sex: SPRAGUE-DAWLEY/FEMALE, Target Tissue: Type of Lesion: MAMMARY GLAND: CARCINOMA, Dose [Carcinogen]: 50 MG/KG BW ONCE, Promoter: NONE USED) 100%, 5%, 95%, not calculated; (Carcinogen: N-METHYL-N-NITROSOUREA, 684-93-5, Dose [Inhibitor]: 0, 1 MG/KG BW 1/D FOR 85 D BEGINNING 1 WK POST CARCINOGEN DOSE (STUDY DURATION: 85 D), Route [Inhibitor]: GAVAGE, Species: RAT, Strain/Sex: SPRAGUE-DAWLEY/FEMALE, Target Tissue: Type of Lesion: MAMMARY GLAND: CARCINOMA, Dose [Carcinogen]: 50 MG/KG BW ONCE, Promoter: NONE USED) 100%, 5%, 95%, not calculated.
